Data published in article PMC9027111, “Morphing Natural Product Platensimycin via Heck, Sonogashira, and One-Pot Sonogashira/Cycloaddition Reactions to Produce Antibiotics with In Vivo Activity” (Antibiotics, 2022).
Converted amounts (≈) assume the structure as drawn.

Key:
[1] = system: MSSA 2; test: MIC determination (LB agar dilution), clinical MSSA strain 2; type: cell-based; details: Staphylococcus aureus, at least two replicates
Protocol: (§1) All of the tested compounds were prepared to different concentrations with methanol, and 150 μL of the respective methanol solution was used to mix with 15 mL LB (Luria–Bertani) medium with 1% agar in each Petri dish. Linezolid and PTM were used as reference compounds for comparison. In vitro bioassay for compounds was carried out using clinical strains of S. aureus, E. coli, and Klebsilla pneumoniae. The bacteria were cultivated in LB medium and incubated for 16 h at 37 °C, 250 rpm. The resulting bacteria were diluted to approximate 0.25 at OD600, which were further diluted 10_4-fold. The diluted bacteria (2 μL) were added to Petri dish containing the respective compounds. The resulting Petri dishes were incubated for 16 h at 37 °C. The determination of MIC is the concentration of Petri dishes with no visible growth of bacteria.

[2] = system: MSSA 1; test: MIC determination (LB agar dilution), clinical MSSA strain 1; type: cell-based; details: Staphylococcus aureus, at least two replicates
Protocol: as §1

[3] = system: MRSA 4; test: MIC determination (LB agar dilution), clinical MRSA strain 4; type: cell-based; details: Staphylococcus aureus, at least two replicates
Protocol: as §1

[4] = system: S. aureus ATCC 29213; test: MIC determination (LB agar dilution), S. aureus ATCC 29213; type: cell-based; details: Staphylococcus aureus, ATCC29213, at least two replicates
Protocol: as §1

[5] = system: MRSA 3; test: MIC determination (LB agar dilution), clinical MRSA strain 3; type: cell-based; details: Staphylococcus aureus, at least two replicates
Protocol: as §1

[6] = Metabolic stability assay in pooled human liver microsomes; type: in vitro ADME; details: pH 7.4, 37 °C, NADPH, read-out: Half-Life in Human Hepatic Microsomes
Protocol: Each compound was incubated in duplicate with pooled human liver microsomes at 37 °C. The tested compounds were pre-incubated with pooled human liver microsomes in phosphate buffer (pH 7.4) for 5 min in a shaking water bath at 37 °C. The reaction was initiated by adding a NADPH-generating system and incubated for 0, 15, 30, 45, and 60 min. The reaction was stopped by transferring the incubation mixture to CH3CN/MeOH. Samples were then mixed and centrifuged. Supernatants were used for HPLC–MS/MS analysis. Data were calculated as percent parent compounds remaining by assuming zero-minute time point peak area ratio (analyte/IS) as 100% and dividing remaining time point peak area ratios by the zero-minute time point peak area ratio. Data were subjected to fit a first-order decay model to calculate both the slope and half-life.

[7] = Plasma protein binding by equilibrium dialysis; type: in vitro ADME; details: 37 °C; for Plasma Protein Binding Bound %: 5 μM, 6 h; for fraction unbound at 6 h, 5 μM: plasma, read-out: Plasma Protein Binding Free %
Protocol: Equilibrium dialysis was used to determine the plasma protein binding. All of the test compounds were treated in triplicate by RED Rapid Equilibrium Dialysis Device (Thermo Scientific, Waltham, MA, USA). In brief, the initial compound concentration (5 μM) in the plasma chamber was first set, followed by the addition of phosphate buffered saline (PBS) to the receiver chamber. The Equilibrium Dialysis Device was allowed to shake for 6 h in a 37 °C incubator. Then, 25 μL solution was sampled from the plasma and PBS chambers, respectively, and they were diluted with either blank PBS or plasma to achieve a 1:1 ratio of plasma: PBS for all samples. The concentrations of the tested compounds in the plasma and PBS chambers were determined by LC–MS/MS. The fraction bound was calculated as ([plasma]—[PBS])/[plasma].

[8] = system: MRSA; type: in vivo; details: 50 mg/kg intraperitoneal at 1 h and 5 h after infection, tracked 7 days, n = 5

## CCc1ccc(C#CC2=CC34CC5CC(OC5(C)C3)C4C(C)(CCC(=O)Nc3c(O)ccc(C(=O)O)c3O)C2=O)cc1 (stereo not drawn) [B11]
[1]
  MIC: 1 µg/mL (≈ 1.76 µM)
[2]
  MIC: 1 µg/mL (≈ 1.76 µM)
[3]
  MIC: 1 µg/mL (≈ 1.76 µM)
[4]
  MIC: 1 µg/mL (≈ 1.76 µM)
[5]
  MIC: 1 µg/mL (≈ 1.76 µM)

## CC12CC34C=C(C#Cc5ccc(Cl)cc5)C(=O)C(C)(CCC(=O)Nc5c(O)ccc(C(=O)O)c5O)C3C(CC1C4)O2 (stereo not drawn) [B15]
[1]
  MIC: 1 µg/mL (≈ 1.74 µM)
[2]
  MIC: 1 µg/mL (≈ 1.74 µM)
[3]
  MIC: 1 µg/mL (≈ 1.74 µM)
[4]
  MIC: 1 µg/mL (≈ 1.74 µM)
[5]
  MIC: 1 µg/mL (≈ 1.74 µM)

## CC12CC34C=C(C=CC(=O)N5CCOCC5)C(=O)C(C)(CCC(=O)Nc5c(O)ccc(C(=O)O)c5O)C3C(CC1C4)O2 (stereo not drawn) [A10]
[6]
  half-life: > 2 h
[1]
  MIC: 16 µg/mL (≈ 27.6 µM)
[7]
  Plasma Protein Binding Bound %: 77%
  fraction unbound at 6 h, 5 μM: 0.23
[2]
  MIC: 16 µg/mL (≈ 27.6 µM)
[3]
  MIC: 16 µg/mL (≈ 27.6 µM)
[4]
  MIC: 16 µg/mL (≈ 27.6 µM)
[5]
  MIC: 16 µg/mL (≈ 27.6 µM)

## CC(=O)C1=C(C)OC(Cc2cccc(F)c2)=C2C(=O)C(C)(CCC(=O)Nc3c(O)ccc(C(=O)O)c3O)C3C4CC5CC3(CC5(C)O4)C12 (stereo not drawn) [C5]
[1]
  MIC: 16 µg/mL (≈ 24.3 µM)
[2]
  MIC: 16 µg/mL (≈ 24.3 µM)
[3]
  MIC: 16 µg/mL (≈ 24.3 µM)
[4]
  MIC: 16 µg/mL (≈ 24.3 µM)
[5]
  MIC: 16 µg/mL (≈ 24.3 µM)

## CN[C@H](CC(C)C)C(=O)N[C@H]1C(=O)N[C@@H](CC(N)=O)C(=O)N[C@H]2C(=O)N[C@H]3C(=O)N[C@H](C(=O)N[C@H](C(=O)O)c4cc(O)cc(O)c4-c4cc3ccc4O)[C@H](O)c3ccc(c(Cl)c3)Oc3cc2cc(c3O[C@@H]2O[C@H](CO)[C@@H](O)[C@H](O)[C@H]2O[C@H]2C[C@](C)(N)[C@H](O)[C@H](C)O2)Oc2ccc(cc2Cl)[C@H]1O [vancomycin, reference compound]
[8]
  survival of infected mice: 100%

## CC12CC34C=C(C#Cc5cccc(N)c5)C(=O)C(C)(CCC(=O)Nc5c(O)ccc(C(=O)O)c5O)C3C(CC1C4)O2 (stereo not drawn) [B9]
[1]
  MIC: 1 µg/mL (≈ 1.8 µM)
[2]
  MIC: 1 µg/mL (≈ 1.8 µM)
[3]
  MIC: 1 µg/mL (≈ 1.8 µM)
[4]
  MIC: 1 µg/mL (≈ 1.8 µM)
[5]
  MIC: 1 µg/mL (≈ 1.8 µM)

## COc1ccc(C#CC2=CC34CC5CC(OC5(C)C3)C4C(C)(CCC(=O)Nc3c(O)ccc(C(=O)O)c3O)C2=O)cc1 (stereo not drawn) [B13]
[1]
  MIC: 1 µg/mL (≈ 1.75 µM)
[2]
  MIC: 1 µg/mL (≈ 1.75 µM)
[3]
  MIC: 1 µg/mL (≈ 1.75 µM)
[4]
  MIC: 1 µg/mL (≈ 1.75 µM)
[5]
  MIC: 1 µg/mL (≈ 1.75 µM)

## CCc1ccc(CC2=C3C(=O)C(C)(CCC(=O)Nc4c(O)ccc(C(=O)O)c4O)C4C5CC6CC4(CC6(C)O5)C3C(C(C)=O)=C(C)O2)cc1 (stereo not drawn) [C3]
[1]
  MIC: 32 µg/mL (≈ 47.8 µM)
[2]
  MIC: 32 µg/mL (≈ 47.8 µM)
[3]
  MIC: 32 µg/mL (≈ 47.8 µM)
[4]
  MIC: 32 µg/mL (≈ 47.8 µM)
[5]
  MIC: 32 µg/mL (≈ 47.8 µM)

## CCCCCC#CC1=CC23CC4CC(OC4(C)C2)C3C(C)(CCC(=O)Nc2c(O)ccc(C(=O)O)c2O)C1=O (stereo not drawn) [B5]
[1]
  MIC: 1 µg/mL (≈ 1.87 µM)
[2]
  MIC: 1 µg/mL (≈ 1.87 µM)
[3]
  MIC: 1 µg/mL (≈ 1.87 µM)
[4]
  MIC: 1 µg/mL (≈ 1.87 µM)
[5]
  MIC: 1 µg/mL (≈ 1.87 µM)

## CC12CC34C=C(C#CC5CC5)C(=O)C(C)(CCC(=O)Nc5c(O)ccc(C(=O)O)c5O)C3C(CC1C4)O2 (stereo not drawn) [B4]
[1]
  MIC: 1 µg/mL (≈ 1.98 µM)
[2]
  MIC: 1 µg/mL (≈ 1.98 µM)
[3]
  MIC: 1 µg/mL (≈ 1.98 µM)
[4]
  MIC: 1 µg/mL (≈ 1.98 µM)
[5]
  MIC: 1 µg/mL (≈ 1.98 µM)

## CC12CC34C=C(c5ccc6ccc7cccc8ccc5c6c78)C(=O)C(C)(CCC(=O)Nc5c(O)ccc(C(=O)O)c5O)C3C(CC1C4)O2 (stereo not drawn) [1b, 6-pyrenyl PTM, reference compound]
[6]
  half-life: 1.22 h
[7]
  Plasma Protein Binding Bound %: 99.9%
  fraction unbound at 6 h, 5 μM: 0.001

## C#CC1=CC23CC4CC(OC4(C)C2)C3C(C)(CCC(=O)Nc2c(O)ccc(C(=O)O)c2O)C1=O (stereo not drawn) [B1]
[1]
  MIC: 8 µg/mL (≈ 17.2 µM)
[2]
  MIC: 8 µg/mL (≈ 17.2 µM)
[3]
  MIC: 8 µg/mL (≈ 17.2 µM)
[4]
  MIC: 8 µg/mL (≈ 17.2 µM)
[5]
  MIC: 8 µg/mL (≈ 17.2 µM)

## CC(=O)NC[C@H]1CN(c2ccc(N3CCOCC3)c(F)c2)C(=O)O1 [Linezolid, reference compound]
[1]
  MIC: 1 µg/mL (≈ 2.96 µM)
[2]
  MIC: 1 µg/mL (≈ 2.96 µM)
[3]
  MIC: 1 µg/mL (≈ 2.96 µM)
[4]
  MIC: 1 µg/mL (≈ 2.96 µM)
[5]
  MIC: 1 µg/mL (≈ 2.96 µM)

## CC(=O)C1=C(C)OC(Cc2ccccc2)=C2C(=O)C(C)(CCC(=O)Nc3c(O)ccc(C(=O)O)c3O)C3C4CC5CC3(CC5(C)O4)C12 (stereo not drawn) [C1]
[1]
  MIC: 16 µg/mL (≈ 24.9 µM)
[2]
  MIC: 16 µg/mL (≈ 24.9 µM)
[3]
  MIC: 16 µg/mL (≈ 24.9 µM)
[4]
  MIC: 16 µg/mL (≈ 24.9 µM)
[5]
  MIC: 16 µg/mL (≈ 24.9 µM)

## CC(=O)C1=C(C)OC(Cc2ccc(C)cc2)=C2C(=O)C(C)(CCC(=O)Nc3c(O)ccc(C(=O)O)c3O)C3C4CC5CC3(CC5(C)O4)C12 (stereo not drawn) [C2]
[1]
  MIC: 16 µg/mL (≈ 24.4 µM)
[2]
  MIC: 16 µg/mL (≈ 24.4 µM)
[3]
  MIC: 16 µg/mL (≈ 24.4 µM)
[4]
  MIC: 16 µg/mL (≈ 24.4 µM)
[5]
  MIC: 16 µg/mL (≈ 24.4 µM)
